Data published in paper PMC6339655 (International Journal of Nanomedicine, 2019).
≈ marks a conversion by molar mass, not a printed value.

System: C. albicans (ATCC-90028)
Assay: MIC by colony-forming assay
Assay type: cell-based
Settings: Candida albicans, ATCC90028, 48 h

`C[C@@H]1C/C=C/C=C/C=C/C=C/[C@H](O[C@@H]2O[C@H](C)[C@@H](O)[C@H](N)[C@@H]2O)C[C@@H]2O[C@](O)(C[C@@H](O)C[C@H]3O[C@@H]3/C=C/C(=O)O1)C[C@H](O)[C@H]2C(=O)O` [natamycin] gave an MIC of 64 µg/mL (≈ 96.1 µM).
